# Measured values from EP2924037A1, “QUINAZOLINE DERIVATE AND USE THEREOF AS APOPTOSIS INHIBITOR” (Linx Pharmaceutical Co., Ltd., priority 2012, dated 2013).
# How the values were obtained:
# HS>rpr Drosophila = assay: Compound screen in the apoptotic HS>rpr Drosophila model; format: in vivo; settings: heat shock at 37 °C; 25 compounds screened
# Procedure: HS-Gal4 (a promoter that can be expressed in whole body and activated by heat), can promote expression of any genes having repeated UAS (upstream activating sequence) at the 5' region. The HS-Gal4 and UAS-Reaper Drosophila were crossed at 18 °C to produce hybrids referred to as HS> rpr, and the female offspring underwent normal development. However, with heat shock for 2-3 hours at 37 °C, about 50-70% of the offspring died after 14-24 h (Fig. 1). 25 compounds were selected (Fig. 2) to determine their impact on the lethal rate of HS> rpr.
# UAS-rpr and HS-Gal4 flies were obtained from Bloomington Stock Center in the US. The F1 progenies (HS>rpr) from the cross of these two lines were raised at 18 °C for the compound screen. Compounds were dissolved in 5% sucrose at the concentrations used in the culture media for Cmap. The compound solution (150 µL) was added to a vial containing three layers of filter papers. Twenty adult HS>rpr flies aged 1-3 days were then placed into each vial for 24 hours. The flies were heat shocked at 37 °C for 2 hrs. The survival rate was calculated 12 hrs after the heat shock.
# [1] = tested on: RAW264.7 macrophage cells; assay: LPS and IFNγ induced apoptosis, Annexin V staining; format: cell-based; settings: Mus musculus, LPS (2 µg/ml) and IFNγ (50 U/ml), read-out: reduction of apoptosis
# Procedure: Cells were stained with Annexin V to examine apoptosis (Fig. 4). […] Terazosin (4 µg/ml) can reduced 50% of apoptosis (Fig. 4).
# The RAW 264.7 cells were cultured in the DMEM medium (Gibco) supplemented with 10% FBS (Gibco), streptomycin (0.1 g/L) and penicillin (0.06 g/L) (Amresco). To induce apoptosis, RAW 264.7 cells at 90% confluence were incubated in DMEM (10% FBS) containing 2 µg/mL lipopolysaccharide (LPS; Escherichia coli O111:B4, Sigma) for 24 hours.
# (§1) RAW 264.7 cells were cultured in the DMEM medium (Gibco) supplemented with 5% FBS, streptomycin (0.1 mg/mL) and penicillin (0.06 mg/mL). To induce apoptosis, 2 µg/mL lipopolysaccharide (LPS; Escherichia coli O111:B4, Sigma-Aldrich) and IFN-γ (50 U/mL, Peprotech) were added, and a predetermined concentration of the testing compound was added at the same time. Cell death was assessed by Western blot with an anti-active Caspase 3 antibody (#9661, Cell Signaling). β-Actin (Boster) was used as internal control for protein loading. The ratio of Caspase 3/β-Actinwas was used to assess apoptosis.
# [2] = tested on: E. coli induced sepsis model; assay: E. coli induced sepsis model in mice; format: in vivo, BALB/C mice; settings: 0.4 mg/kg, 1.5 hours following injection of E. coli
# Procedure: Terazosin was tested in a model of septicemia caused by E. coli injected. […] To determine the potential antibacterial effect, the growth of E. coli was examined in the presence of terazosin.
# E. Coli O111:B4 = assay: Oxford Cup test of antibiotic activity; format: cell-based; settings: after 24 hrs; terazosin 0.2µg, 2µg, 200µg, 2mg; ampicillin 2mg
# Procedure: The antibiotic activity of terazosin was measured by Oxford Cup test. Oxford Cups containing different concentrations of terazosin were placed in the petri dish wherein E. Coli O111:B4 was cultured on LB medium. The effects of terazosin and ampicillin on the growth of E. Coli were examined after 24 hrs.
# CLP model of sepsis = format: in vivo, BALB/C mice
# Procedure: (§2) Because E. coli and LPS models can only simulate Gram-negative bacteria infections, terazosin was further tested in a cecal ligation and puncture (CLP) model, which is believed to be the classic standard model of experimental septicemia (Parker and Watkins, 2001; Wichterman et al., 1980). First, 0.4 mg/kg of terazosin (same concentration as used in the LPS model) was tested. […] This may be due to severe cardiac dysfunction and hypotension induced by CLP. Thus, the blood pressure lowering function of the drug may have masked its anti-apoptotic effect. […] In addition, the combination of terazosin and antibiotics was tested. Terazosin was combined with amoxicillin and clavulanate potassium (Co-Am, amoxicillin and clavulanate potassium in a weight ratio of 4: 1, by way of a specific example elsewhere or instance mentioned in the present invention, also means a 4 : 1 ratio. Skilled in the art can understand, when a combination of amoxicillin and clavulanate potassium is referred to, the weight ratio of amoxicillin and clavulanate potassium can be from 1:1 to 10:1, especially 1:1-7:1, for example, about 1:1, about 4:1, about 7:1).
# For the CLP model of sepsis, mice were anesthetized with chloral hydrate (300 mg/kg, i.p.). Then, a 1.5-2.0 cm long abdominal midline incision was made and the cecum was exposed. […]
# [3] = Blood pressure of injected mice; format: in vivo; settings: 0.08 mg/kg
# Procedure: as §2
# [4] = tested on: active form of caspase-3 in Raw 264.7 cells; assay: Western blot of the active form of caspase-3 in cells treated with LPS and IFNγ; format: cell-based
# Procedure: CLP was done one week after the injection.
# For Western blot, an anti-active Caspase 3 antibody (#9664, Cell Signaling) was used. The anti-actin antibody was purchased from Wuhan Boster company, China.
# as §1
# [5] = Effect on serum glucose in mice; format: in vivo; settings: Mus musculus, ip, 18 h, read-out: reduction of the serum glucose level
# Procedure: Mice were injected terazosin (0.4 mg/kg i.p.) once. The serum glucose level of the mice was measured 18 hours later. […] By the same method, exemplary compounds Co.1, Co.3, Co.7, Co.9, Co.13, Co.16, Co.19, Co.24, Co.27 and Co.32 as described in the present invention were all shown to be effective to reduce the serum glucose level by 20% to 50%.
# [6] = tested on: sepsis models (LPS; Cecal Ligation and Puncture); assay: Effects against sepsis (LPS and CLP models), 7-day survival; format: in vivo, BALB/C mice; settings: i.p. once a day for 3 days at 0.4 mg/kg; 7-day period; P < 0.05 compared to negative controls
# Procedure: After 1.5 hours, compounds were injected (i.p.) at a predetermined concentration. Mouse survival was examined every 12 hours for 7 days. Statistical significance of the difference in the survival rates was analyzed.
# Another model is Cecal Ligation and Puncture (CLP) model of sepsis. Mice were anesthetized. A 1.5-2.0 cm long abdominal midline incision was made and the cecum was exposed. After ligation 5 mm from the cecal tip, the cecum was punctured once with a 22-gauge needle, and some stool was squeezed out. Then the cecum was put back into the abdomen and the abdomen was closed by running suture. After 1.5 hours, compounds were injected (i.p.) at a predetermined concentration. Mouse survival was examined every 12 hours for 7 days. Statistical significance of the difference in the survival rates was analyzed.
# These compounds were individually injected (i.p.) once a day for 3 days at 0.4 mg/kg.
# Procedure for LPS-induced sepsis model: Male BALB/C mice (20±3g) from Vital River (Beijing, China) were housed in the Animal Center of Peking University. […] For the LPS model of sepsis, each mouse was injected with LPS (13.5 mg/kg, i.p.) once. […] Terazosin (0.4 mg/kg or 0.04 mg/kg) or saline was then injected (i.p.) 1.5 hours after LPS infusion. Lethality was recorded every 12 hours for 7 days.
# 24 hrs after LPS injection, one thymus from each mouse was collected. Then, the genomic DNA of thymus was extracted with a genomic DNA purification kit (Biofuture, Beijing, China). DNA fragmentation was assessed on a DNA agarose gel.
compound,measurement,setting,value
"COc1cc2nc(N3CCN(C(=O)C4CCCO4)CC3)nc(N)c2cc1OC (stereo not drawn) [Co.33, (4-(4-amino-6,7-dimethoxyquinazolin-2-yl)piperazin-1-yl)(tetrahydrofuran-2-yl)methanone]",survival rate of HS>rpr Drosophila,HS>rpr Drosophila,significantly improve the survival rate
same,inhibition at 4 µg/mL,[1],50%
same,protection from E. coli-induced death,[2],can protect mice from E. coli-induced death
same,growth of E. coli (inhibition zones),E. Coli O111:B4,cannot inhibit the growth of E. coli
same,survival of mice in the CLP model,"CLP model of sepsis; 0.08 mg/kg, injected at 1.5 hours and 24 hours after surgery",significantly promoted the survival of mice
same,death of mice in the CLP model versus control,"CLP model of sepsis; mouse, in vivo",died faster than the control group
same,blood pressure of the injected mice,[3],completely normal
same,active form of caspase-3,[4],decreased
same,inhibition in vivo at 0.4 mg/kg,[5],30%
same,survival against sepsis,[6],significantly increased survival against sepsis
same,effect in later phases of septicemia (survival),LPS-induced sepsis model; injected at 12 hours after LPS treatment (0.04 mg/kg per Fig. 6),satisfactory results
same,DNA ladders in genomic DNA of the thymus,"LPS-induced sepsis model; mice treated with LPS and terazosin vs LPS, 24 hrs after LPS injection",significantly reduced
